Here are results for twelve compounds from patent US7666867B2, “Heteroindanes: a new class of potent cannabimimetic ligands” (University of Connecticut, priority 2001, dated 2010).

Where two headings read alike, the source gives them in different places.

For assay [1], the system named is rats. The assay can be described thus: Locomotor activity, rate of beam crossings in photocell apparatus. It counts as in vivo, rat. The following applies: intravenous; for effect on locomotor activity: early after administration, FIG. 3 and 4. As to the method:
Rats were injected with varied doses of either some of the inventive compounds or with WIN 55212-2, a known CB1/CB2 receptor agonist. The injected compounds were solubilized in DMSO:40% cyclodextrin (1:10) and intravenously administered.
Locomotor activity was assessed by measuring the rate of beam crossings by rats in a photocell apparatus according to the procedure of M. Cosenza et al, Locomotor Activity and Occupancy of Brain Cannabinoid CB1 Receptors by the Antagonist/Inverse Agonist AM281, Synapse, 38, 477-482 (2000).

The target in the next assay is T1, CB2 receptor (Mus musculus, UniProt P47936).
T1 construct: membranes were prepared from frozen mouse spleen; from tissue; host or cells: frozen mouse spleen membranes
T1 sequence (P47936 whole entry): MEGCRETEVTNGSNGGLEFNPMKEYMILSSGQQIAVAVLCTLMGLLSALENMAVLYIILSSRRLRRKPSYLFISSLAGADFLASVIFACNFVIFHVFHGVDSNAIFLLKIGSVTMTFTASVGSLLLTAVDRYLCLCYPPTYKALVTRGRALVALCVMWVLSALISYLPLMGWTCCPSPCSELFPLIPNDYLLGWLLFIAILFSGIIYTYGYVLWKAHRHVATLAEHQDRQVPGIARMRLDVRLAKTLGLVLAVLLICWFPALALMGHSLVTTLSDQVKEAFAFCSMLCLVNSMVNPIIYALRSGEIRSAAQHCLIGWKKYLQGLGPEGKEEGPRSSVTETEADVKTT
The assay can be described thus: CB2 receptor binding assay, [3H]CP-55,940 displacement, mouse spleen membranes. As to the method: (§1) The treated membranes were subsequently used in the binding assay described below. Approximately 30 μg of membranes were incubated in silanized 96-well microtiter plate with TME containing 0.1% essentially fatty acid-free bovine serum albumin (BSA), 0.8 nM [^3H] CP-55,940, and various concentrations of test materials in a final volume of […]. The assays were incubated for 1 hour at 30° C. and then immediately filtered using Packard Filtermate 196 harvester and Whatman GF/C filterplates and washed with wash buffer (TME) containing 0.5% BSA. Radioactivity was detected using MicroScint 20 scintillation cocktail added directly to the dried filterplates, and the filterplates were counted using a Packard Instruments Top-Count. Nonspecific binding was assessed using 100 nM CP-55,940. Data collected from three independent experiments performed with duplicate determinations was normalized between 100% and 0% specific binding for [^3H] CP-55,940, determined using buffer and 100 nM CP-55,940. The normalized data was analyzed using a 4-parameter nonlinear logistic equation to yield IC50 values. Data from at least two indeperident experiments performed in duplicate was used to calculate IC50 values which were converted to Ki values using the assumptions of Cheng et al, Relationship Between the Inhibition Constant (Ki) and the concentratiori of Inhibitor which causes 50% Inhibition (IC50) of an Enzymatic Reaction, Biochem. Pharmacol., 22, 3099-3102, (1973), which is incorporated by reference herein.
For the CB2 receptor binding studies, membranes were prepared from frozen mouse spleen essentially according to the procedure of P. R. Dodd et al, A Rapid Method for Preparing Synaptosomes: Comparison with Alternative Procedures, Brain Res., 226, 107-118 (1981) which is incorporated by reference herein. Silanized centrifuge tubes were used throughout to minimize receptor loss due to adsorption. The CB2 binding assay was conducted in the same manner as for the CB1 binding assay. The binding affinities (Ki) were also expressed in nanomoles (nM).

The target of a further assay is T2, CB1 receptor (Rattus norvegicus, UniProt P20272).
T2 construct: membranes were prepared from rat forebrain membranes; from tissue; host or cells: rat forebrain membranes
T2 sequence (P20272 whole entry): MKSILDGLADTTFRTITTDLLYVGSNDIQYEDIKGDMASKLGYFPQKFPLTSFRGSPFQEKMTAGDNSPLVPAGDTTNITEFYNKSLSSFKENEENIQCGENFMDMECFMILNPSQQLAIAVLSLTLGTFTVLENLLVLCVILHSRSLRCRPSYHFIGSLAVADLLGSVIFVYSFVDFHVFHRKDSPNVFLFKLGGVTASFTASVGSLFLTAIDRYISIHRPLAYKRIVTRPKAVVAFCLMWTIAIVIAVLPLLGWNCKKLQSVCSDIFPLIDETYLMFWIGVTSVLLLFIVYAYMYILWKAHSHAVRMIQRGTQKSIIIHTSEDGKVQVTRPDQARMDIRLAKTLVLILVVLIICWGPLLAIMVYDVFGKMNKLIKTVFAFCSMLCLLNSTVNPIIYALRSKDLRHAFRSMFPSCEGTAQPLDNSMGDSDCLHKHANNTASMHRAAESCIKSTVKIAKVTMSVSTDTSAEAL
Briefly: CB1 receptor binding assay, [3H]CP-55,940 displacement, rat forebrain membranes. As to the method: The inventive analogs were tested for CB2 receptor binding affinity and for CB1 receptor affinity (to determine selectivity for the CB2 receptor). As used herein, “binding affinity” is represented by the IC50 value which is the concentration of an analog required to occupy the 50% of the total number (Bmax) of the receptors. The lower the IC50 value the higher the binding affinity. […] For the CB1 receptor binding studies, membranes were prepared from rat forebrain membranes according to the procedure of P. R. Dodd et al, A Rapid Method for Preparing Synaptosomes: Comparison with Alternative Procedures, Brain Res., 107-118 (1981). The binding of the novel analogues to the CB1 cannabinold receptor was assessed as described in W. A. Devane et al, Determination and Characterization of a Cannabinoid Receptor in a Rat Brain, Mol. Pharmacol., 34, 605-613 (1988) and A. Charalambous et al, 5′-azido Δ^8− THC: A Novel Photoaffinity Label for the Cannabinoid Receptor, J. Med. Chem., 35, 3076-3079 (1992) with the following changes. The above articles are incorporated by reference herein.
Membranes, previously frozen at −80° C., were thawed on ice. To the stirred suspension was added three volumes of TME (25 mM Tris-HCl buffer, 5 mM MgCl2 and 1 mM EDTA) at a pH 7.4. The suspension was incubated at 4° C. for 30 min. At the end of the incubation, the membranes were pelleted and washed three times with TME.
as §1

Assay [2] deals with rats. The assay can be described thus: Peripheral antinociception, paw withdrawal latency to thermal stimulus. In kind it is in vivo, rat. The following applies: ipsilateral i.paw injection, measured 25 min after injection, FIG. 1 and 2. As for the experimental part: Using rats as test subjects, varied doses of some of the inventive compounds were injected subcutaneously in the dorsal surface of the paw (i.paw, 50 μl). Measurements were taken 25 min after i.paw injection. Assessment of antinociceptive action was made by evaluating the response latency to removal of the paw from a focused source of thermal stimulation, as described by T. P. Malan Jr., CB2 Cannabinoid Receptor-mediated Peridpheral Antinociception, Pain, 93, 239-245 (2001), the content of which is incorporated by reference herein. Rats were allowed to acclimate within Plexiglas enclosures on a clear glass plate maintained at 30° C. A radiant heat source (a high-intensity projector lamp) was focused onto the plantar surface of the hindpaw. Activation of the heat source activated a timer, which stopped when withdrawal of the paw was detected with a photodetector. A maximal cut-off of 40 seconds (s) was utilized to prevent tissue damage.
Antinociception is expressed as the percent of the maximum possible effect (% MPE), using the formula: % MPE=(WL-CL)/(CO-CL), where WL is the withdrawal latency obtained experimentally, CL is the control (baseline) value before drug administration, and CO is the cut-off value (40 s). Dose-response curves were generated. Significance was defined as P<0.05.

The mark [3] stands for this setting: rat forebrain membranes, 0.8 nM [3H]CP-55,940, read-out: Ki (nM) CB1.

With `Cc1c(C(=O)c2cccc3ccccc23)c2cccc3c2n1[C@H](CN1CCOCC1)CO3` [WIN 55212-2, reference compound], in the assay with rats [1], the “cannabinoid-like behaviour in the locomotor assay” value is “produced the typical cannabinoid-like catalepsy and inhibition of locomotion”; the “effect on locomotor activity” value is given as “significantly reduced locomotor activity”.
On to `O=C(NC12CC3CC(CC(C3)C1)C2)c1nn(CCN2CCOCC2)c2ccccc12` [compound 1], for which the inhibition constant Ki (commonly a dissociation constant, usually derived from enzyme kinetics or from competition with a known ligand) stood at 0.147 nM at CB2 receptor and 6.84 nM on CB1 receptor.
Turning to `CN1CCCCC1Cn1nc(C(=O)NC23CC4CC(CC(C4)C2)C3)c2ccccc21` (stereo not drawn) [compound 2], the Ki was determined as 8.74 nM on CB2 receptor and 47.5 nM at CB1 receptor.
In the case of `N#CCCCCn1nc(C(=O)NC23CC4CC(CC(C4)C2)C3)c2ccccc21` [compound 3], in the assay with rats [1], the “cannabinoid-like behaviour in the locomotor assay” value is “produced the typical cannabinoid-like catalepsy and inhibition of locomotion”; the “effect on locomotor activity” value is given as “significantly reduced locomotor activity”. Moreover, the “antinociception to a thermal stimulus applied to the hindpaw” value in the assay with rats [2] is given as “produced dose-dependent antinociception”. At CB2 receptor, this compound showed an inhibitory constant (Ki) of 0.309 nM. Moreover, the Ki at CB1 receptor is 2.28 nM.
On to `O=C(NC12CC3CC(CC(C3)C1)C2)c1nn(CCCCCl)c2ccccc12` [compound 4], for which the inhibition constant Ki at CB2 receptor is 1.34 nM; at CB1 receptor it was 1.65 nM.
`O=C(NC12CC3CC(CC(C3)C1)C2)c1nn(CCCCI)c2ccccc12` [compound 5]: the Ki on CB2 receptor is 0.164 nM; at CB1 receptor, 0.596 nM.
For the compound `CN(C)CCCn1nc(C(=O)NC23CC4CC(CC(C4)C2)C3)c2ccccc21` [compound 6], the Ki on CB2 receptor is 20.9 nM; at CB1 receptor (setting [3]), 443 nM.
Regarding `O=C(Nc1cccc2ccccc12)c1nn(CCCCCl)c2ccccc12` [compound 7], the Ki on CB2 receptor was determined as 0.135 nM; on CB1 receptor, 0.268 nM.
Turning to `O=C(Nc1cccc2ccccc12)c1nn(CCCCI)c2ccccc12` [compound 8], the Ki at CB2 receptor was determined as 27 nM; at CB1 receptor it was 13.7 nM.
Turning to `CN(C)CCCn1nc(C(=O)Nc2cccc3ccccc23)c2ccccc21` [compound 9], the Ki at CB2 receptor was determined as 235 nM; at CB1 receptor (setting [3]) it was 451 nM.
`CN1CCCCC1Cn1nc(C(=O)Nc2cccc3ccccc23)c2ccccc21` (stereo not drawn) [compound 10]: the inhibitory constant (Ki) on CB2 receptor was determined as 8.04 nM; on CB1 receptor, 15 nM.
In the case of `O=C(NN1CCCCC1)c1nn(-c2ccccc2)c2cc(Br)ccc12` [compound 11], the Ki on CB2 receptor stood at 84.7 nM; on CB1 receptor (setting [3]), 1850 nM.
